In PubChem BioAssay (NCI):
Where “and” joins values, the source holds several entries; their conditions need not be identical. Identical values can stand only once.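 Following 48 hours of exposure in 96-well plates, responses at five concentrations were used to interpolate endpoints linearly. At the GI50, growth is halved. TGI: total growth inhibition.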

Columns and labels:
Experiment in all cases: NCI anticancer screen, dose series, 48 h
COLO 205 colon = system: COLO 205 colon
HCC-2998 colon = system: HCC-2998 colon
HCT-15 colon = system: HCT-15 colon
IGROV1 ovarian = system: IGROV1 ovarian
M14 melanoma = system: M14 melanoma
PC-3 prostate = system: PC-3 prostate
SF-295 CNS = system: SF-295 CNS
TK-10 renal = system: TK-10 renal
UACC-62 melanoma = system: UACC-62 melanoma
UO-31 renal = system: UO-31 renal

SMILES	GI50 (COLO 205 colon)	TGI (COLO 205 colon)	GI50 (HCC-2998 colon)	TGI (HCC-2998 colon)	GI50 (HCT-15 colon)	TGI (HCT-15 colon)	GI50 (IGROV1 ovarian)	TGI (IGROV1 ovarian)	GI50 (M14 melanoma)	TGI (M14 melanoma)	GI50 (PC-3 prostate)	TGI (PC-3 prostate)	GI50 (SF-295 CNS)	TGI (SF-295 CNS)	GI50 (TK-10 renal)	TGI (TK-10 renal)	GI50 (UACC-62 melanoma)	TGI (UACC-62 melanoma)	GI50 (UO-31 renal)	TGI (UO-31 renal)
COCCNC(=O)c1ccc(-c2nc3ccc4[nH]ncc4c3c3c2CCCC3)cc1	2.83 µM	15 µM	2.98 µM	> 100 µM	2.67 µM	> 100 µM	1240 nM	10.9 µM	1390 nM	> 100 µM	2.96 µM	> 100 µM	2700 nM	47.7 µM	1.09 µM	> 100 µM	1580 nM	13.1 µM	1580 nM	5.74 µM
C[C@@H]1C[C@@]2(O[C@@H]2C)C(=O)O[C@@H]2CCN3CC=C(COC(=O)[C@]1(C)O)[C@H]23	–	> 100 µM	–	> 100 µM	–	> 100 µM	–	> 100 µM	–	> 100 µM	–	> 100 µM	–	> 100 µM	–	> 100 µM	–	> 100 µM	–	> 100 µM
Clc1ccc2c(c1)-c1ccccc1C1=NCCN12	1.61 µM	3.54 µM	1.87 µM	3.76 µM	2.71 µM	9.62 µM	2140 nM	5.36 µM	1560 nM	3.07 µM	2.03 µM	6.83 µM	2120 nM	6.34 µM	1.87 µM	5.51 µM	1600 nM	3.48 µM	1280 nM	2.8 µM
COc1cc(/C=C/C(=O)c2c(C)n([O-])c3ccc(Cl)cc3[n+]2=O)cc(OC)c1OC	> 100 µM	> 100 µM	> 100 µM	> 100 µM	> 100 µM	> 100 µM	35400 nM	> 100 µM	> 100000 nM	> 100 µM	27.5 µM	> 100 µM	35000 nM	> 100 µM	26.5 µM	97.7 µM	> 100000 nM	> 100 µM	1550 nM	5.47 µM
O=C(CCCCCCC(=O)Nc1ccc2c(c1)/C(=C/c1ccc[nH]1)C(=O)N2)NO	0.245 µM	1.4 µM	1.64 µM	10.9 µM	3.93 µM	> 49.3 µM	1610 nM	7.9 µM	427 nM	10 µM	0.851 µM	> 100 µM	1300 nM	7.51 µM	0.795 µM	7.78 µM	287 nM	1.39 µM	963 nM	> 100 µM
Cc1nn(-c2nc3ccccc3[nH]2)c2c1C(c1ccc3c(c1)OCO3)CC(=O)N2 (stereo not given)	2.11 µM	4.15 µM	3.7 µM	> 24.3 µM	3.05 µM	> 100 µM	2360 nM	4.57 µM	2310 nM	5.98 µM	3.16 µM	22 µM	1810 nM	4.38 µM	3.14 µM	> 25.8 µM	1660 nM	3.13 µM	2730 nM	8.14 µM
O=C(N/N=C\c1ccc(N(CCCl)CCCl)cc1Cl)c1cccnc1	8.5 µM	38.1 µM	17.2 µM	68.1 µM	29 µM	> 100 µM	1500 nM	24.5 µM	26500 nM	> 83.7 µM	19.2 µM	> 100 µM	565 nM	9.97 µM	0.991 µM	7.84 µM	513 nM	3.92 µM	14600 nM	52.9 µM
OC(CNc1ccnc2cc(Cl)ccc12)CNC1CCCCC1 (stereo not given)	1.69 µM	3.31 µM	3.79 µM	11 µM	3.78 µM	17 µM	10100 nM	24.4 µM	1650 nM	3.11 µM	8.08 µM	28.7 µM	2130 nM	4.9 µM	3.61 µM	13.6 µM	2150 nM	5.2 µM	2220 nM	11 µM
COc1cc(-c2oc3c(OC)c(O)c(OC)c(O)c3c(=O)c2OC)ccc1O	–	> 100 µM	–	> 100 µM	–	> 100 µM	–	65.9 µM	–	96 µM	–	> 100 µM	–	> 100 µM	–	98.9 µM	–	> 100 µM	–	85.2 µM
C=CC(=O)Nc1cccc(C)c1Nc1ncc2cc(-c3c(Cl)c(OC)cc(OC)c3Cl)ccc2n1	4.17 µM	36.7 µM	12.4 µM	31.9 µM	4.21 µM	> 100 µM	8180 nM	26 µM	7440 nM	57.2 µM	2.09 µM	23.3 µM	3260 nM	> 100 µM	3.25 µM	22.1 µM	7960 nM	42.9 µM	3660 nM	61.5 µM
Clc1nc(Cl)c(Cc2ccccc2)c(Cl)n1	–	22.6 µM	–	66.1 µM	–	85 µM	–	46.7 µM	–	8.38 µM	–	44.5 µM	–	32 µM	–	32.2 µM	–	16.9 µM	–	33.2 µM
C=C1CC[C@@H]2[C@](C)(COC(C)=O)[C@H](OC(C)=O)CC[C@@]2(C)[C@@H]1C/C=C1/C(=O)OC[C@H]1OC(C)=O	3.37 µM	11.4 µM	12.2 µM	27.3 µM	1.58 µM	4.33 µM	2410 nM	6.23 µM	2220 nM	6.48 µM	6.07 µM	19.9 µM	13300 nM	26.8 µM	3.81 µM	13.3 µM	3370 nM	13.5 µM	1910 nM	3.89 µM
C=C1C(=O)O[C@H]2[C@H]1CC/C(CNS(=O)(=O)c1cccc3ccccc13)=C\CC[C@@]1(C)O[C@@H]21	1.73 µM	3.49 µM	2.16 µM	4.87 µM	1.25 µM	2.7 µM	1380 nM	3.4 µM	1530 nM	3.32 µM	1.91 µM	4.51 µM	5490 nM	19.2 µM	1.48 µM	3.08 µM	1670 nM	4.5 µM	1450 nM	2.94 µM
Cc1ccc(S(=O)(=O)Nc2nc3ccccc3nc2Nc2ccc3nsnc3c2)cc1	5.81 µM and 9.83 µM	23.6 µM and > 100 µM	3.47 µM and 3.67 µM	42.9 µM and > 100 µM	3.61 µM and 3.84 µM	> 100 µM	4160 nM and 2700 nM	> 100 µM and 59.4 µM	4050 nM and 4350 nM	> 100 µM	3.22 µM and 2.91 µM	> 100 µM	2980 nM and 2360 nM	15.7 µM and 13.3 µM	5.18 µM and 3.14 µM	> 100 µM	1810 nM and 2020 nM	10.4 µM and > 28.2 µM	1940 nM and 1580 nM	19 µM and 6.49 µM
COc1ccc2c(c1)OC(N)=C(C#N)C2c1ccc(F)cc1 (stereo not given)	1.74 µM	10.1 µM	6.44 µM	> 100 µM	0.515 µM	51.6 µM	2380 nM	> 100 µM	529 nM	44.2 µM	3.09 µM	99 µM	1960 nM	37.2 µM	5.83 µM	> 100 µM	571 nM	> 100 µM	5640 nM	> 100 µM
OCCNCCNc1c2ccccc2nc2oc3ccccc3c12	3.51 µM	16.4 µM	4.91 µM	20.9 µM	7.57 µM	53.1 µM	7300 nM	38.3 µM	12000 nM	24.5 µM	9.73 µM	34.7 µM	6020 nM	29.6 µM	22.4 µM	86.8 µM	14100 nM	31.5 µM	7280 nM	34.4 µM
Oc1ccc(N=Nc2ccc(N=Nc3ccccc3)cc2)cc1	8.01 µM	24.4 µM	2.52 µM	11.1 µM	0.855 µM	12.9 µM	3500 nM	18.2 µM	3010 nM	10.1 µM	2.83 µM	16.8 µM	2320 nM	10.1 µM	1.98 µM	5.55 µM	874 nM	2.41 µM	610 nM	3.73 µM
